# Data: publication PMC6324813, “Biological evaluation of isoflavonoids from Genista halacsyi using estrogen-target cells: Activities of glucosides compared to aglycones” (PLoS ONE, 2019)
# Where two headings read alike, the source gives them in different places.
# Columns and labels:
# HT22 cells = conditions: read-out: half maximal concentration for HT22 oxytosis inhibition; cited from earlier work
# Ishikawa cells = assay: Induction of AlkP expression in Ishikawa cells; type: cell-based, human; conditions: for Induction of Alkaline Phosphatase Expression (Ishikawa cells) AUC (%): % of AUC of luciferase response of archetypal 3, 4, 5 or 8 up to 0.3, 10, 1.0 and 3.0 μM; for Ratio of AUC (AlkP / Lucif): AUCAlkP / AUCluciferase; for EC (25% of 0.1 nM E2 effect): concentration required to achieve 25% of the effect of 0.1 nM E2, read-out: Induction of Alkaline Phosphatase Expression (Ishikawa cells) EC25E2; for EC50: read-out: Induction of Alkaline Phosphatase Expression (Ishikawa cells) EC50E2; for Induction of AlkP expression (Ishikawa cells) Agonism at 1μΜ, class: compounds 1 μM
# Method: Induction of AlkP expression of Ishikawa cells is considered as a reliable in vitro measure of estrogenic activity. Assessment of AlkP expression in Ishikawa cells was carried as already described. Briefly, the cells were plated in 96-well plates at a density of 12,000 cells per well in phenol-red-free MEM supplemented with 1 μg/mL insulin and 5% DCC-FBS. […] Data on the dependence of AlkP activity on isoflavonoid concentration were curve fitted using SigmaPlot10 (SPSS Inc) and the numerical data of curve fitting were used to determine AUC as described above, using for the calculation of AUC of a particular AlkP response the very same concentration used for the respective luciferase response. The AUC of AlkP responses of the isoflavonoids of a group were expressed as % of the AUC of the luciferase response of the respective archetypal isoflavone.
# MCF-7 cells = assay: MCF-7 cell proliferation (MTT); type: cell-based, human; conditions: for activation at 1 µM: Homo sapiens, MCF7, 72 h, read-out: Induction of cell proliferation (MCF-7 cells) Agonism at 1μΜ (% of 0.1nM E2); for MCF-7 cell proliferation agonist effect compared to the effect of 0.1 nM estradiol: isoflavonoids 1 μM, statistically significant effects; for Induction of cell proliferation (MCF-7 cells) Agonism at 1μΜ, class: compounds 1 μM, 72 h
# Method: Test compound effects on the proliferation of MCF-7 and MDA-MB-231 cells were assessed as previously described.
# ERα [1] = molecular target: T1, ERα (Homo sapiens, UniProt P03372); assay: ER binding competitor assay (fluorescent estrogen ES2), ERα; parameters: purchased Invitrogen; conditions: RBA = (IC50 estradiol/IC50 compound) × 100; ES2 1 nM; estradiol set equal to 100
# T1 sequence (P03372 1-595): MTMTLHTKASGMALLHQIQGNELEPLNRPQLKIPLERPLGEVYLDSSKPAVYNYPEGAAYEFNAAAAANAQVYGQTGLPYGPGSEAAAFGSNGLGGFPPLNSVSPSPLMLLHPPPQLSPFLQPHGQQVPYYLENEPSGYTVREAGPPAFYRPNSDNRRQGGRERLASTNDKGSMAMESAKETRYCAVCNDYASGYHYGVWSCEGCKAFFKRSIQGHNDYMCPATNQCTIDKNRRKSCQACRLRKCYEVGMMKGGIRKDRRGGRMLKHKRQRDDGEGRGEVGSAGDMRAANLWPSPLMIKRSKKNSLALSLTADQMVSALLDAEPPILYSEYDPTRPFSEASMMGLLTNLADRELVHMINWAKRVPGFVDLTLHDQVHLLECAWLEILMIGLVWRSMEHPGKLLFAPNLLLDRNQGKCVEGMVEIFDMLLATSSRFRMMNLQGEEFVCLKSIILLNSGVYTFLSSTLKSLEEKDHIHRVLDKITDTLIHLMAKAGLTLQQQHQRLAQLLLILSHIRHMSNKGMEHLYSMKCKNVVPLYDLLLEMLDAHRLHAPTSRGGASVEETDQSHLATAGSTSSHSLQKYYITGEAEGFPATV
# ERβ [2] = molecular target: T2, ERβ (Homo sapiens, UniProt Q92731); assay: ER binding competitor assay (fluorescent estrogen ES2), ERβ; parameters: purchased Invitrogen; conditions: for RBAβ / RBAα: ERβ-binding selectivity; for RBAβ: RBA = (IC50 estradiol/IC50 compound) × 100, ES2 1 nM, estradiol set equal to 100
# ERβ [3] = molecular target: T2, ERβ; assay: ERE-dependent luciferase gene transcription in HEK:ERβ cells; type: cell-based; parameters: expressed in transfected cells; host or cells: HEK-293 (HEK:ERβ clone, with pERE-tk-Luciferase)
# Method: (§1) Assessment of ER/ERE-dependent luciferase gene transcription in MCF-7:D5L (express ERα) and HEK:ERβ cells (express ERβ) and determination of ER transcriptional agonism was carried as already described. Briefly, the cells were plated in 96-well plates at a density of 12,000 cells per well in phenol-red-free MEM (MCF-7:D5L cells) or phenol-red-free DMEM (HEK:ERβ cells) supplemented with 1 μg/mL insulin and 5% DCC-FBS. […] The AUC of the isoflavonoids of each group were then expressed as % of the AUC of the respective archetypal isoflavone. Since AUC data combine the efficacy as well as the potency of cell response into a single parameter, the %AUC data were considered here as a more reliable measure of relative ER/ERE-dependent luciferase expression of the test compounds.
# ERα [4] = molecular target: T1, ERα; assay: ERE-dependent luciferase gene transcription in MCF-7:D5L cells; type: cell-based; parameters: MCF-7:D5L cells, a clone of MCF-7 cells stably transfected with an Estrogen Response Element (ERE)-endowed reporter plasmid; endogenous in cells; host or cells: MCF-7:D5L (MCF-7 clone carrying pERE-Gl-Luciferase); conditions: for Induction of ERE-dependent Luciferase Transcription (MCF-7:D5L cells) AUC (%): % of AUC of luciferase response of archetypal 3, 4, 5 or 8 up to 0.3, 10, 1.0 and 3.0 μM; for Induction of ERE-dependent Luciferase Transcription (MCF-7:D5L cells) EC25E2: concentration required to achieve 25% of the effect of 0.1 nM E2
# Method: as §1
# [5] = Homo sapiens, Ishikawa, concentration required to achieve 50% of the effect of 0.1 nM E2
# [6] = 18 h; read-out: Induction of luciferase gene transcription through ERβ, HEK:ERβ cells, Agonism at 1μΜ (% of 0.1nM E2)
# [7] = concentration required to achieve 50% of the effect of 0.1 nM E2, read-out: Induction of ERE-dependent Luciferase Transcription (MCF-7:D5L cells) EC50E2
# [8] = isoflavonoids 1 μM; statistically significant effects
# T2 sequence (Q92731 whole entry): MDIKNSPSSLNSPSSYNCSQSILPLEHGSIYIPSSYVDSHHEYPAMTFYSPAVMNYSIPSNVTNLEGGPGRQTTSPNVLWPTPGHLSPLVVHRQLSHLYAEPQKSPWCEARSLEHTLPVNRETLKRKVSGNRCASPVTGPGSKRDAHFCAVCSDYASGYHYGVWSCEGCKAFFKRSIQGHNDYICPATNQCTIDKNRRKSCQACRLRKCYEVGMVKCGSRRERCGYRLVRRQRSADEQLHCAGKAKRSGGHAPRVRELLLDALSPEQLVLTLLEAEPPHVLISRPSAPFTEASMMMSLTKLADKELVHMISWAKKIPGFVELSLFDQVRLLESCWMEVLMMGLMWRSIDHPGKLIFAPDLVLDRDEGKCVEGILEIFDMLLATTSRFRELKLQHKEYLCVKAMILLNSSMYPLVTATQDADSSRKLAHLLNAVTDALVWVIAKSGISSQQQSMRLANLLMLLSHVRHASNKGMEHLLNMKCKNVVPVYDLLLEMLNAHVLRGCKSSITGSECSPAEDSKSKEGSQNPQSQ
Compound,AlkP response lower than ERα-transcriptional response (relative AUC ratios) (Ishikawa cells),Induction of Alkaline Phosphatase Expression (Ishikawa cells) AUC (%) (Ishikawa cells),Ratio of AUC (AlkP / Lucif) (Ishikawa cells),"EC (25% of 0.1 nM E2 effect) (Ishikawa cells; Homo sapiens, Ishikawa, 72 h) [µM]",EC50 (Ishikawa cells; [5]) [µM],"Induction of AlkP expression (Ishikawa cells) Agonism at 1μΜ, class (Ishikawa cells; 72 h)",RBAα (ERα [1]),RBAβ / RBAα (ERβ [2]),activation at 1 µM (ERβ [3]; [6]) [%],Induction of ERE-dependent Luciferase Transcription (MCF-7:D5L cells) AUC (%) (ERα [4]),Induction of ERE-dependent Luciferase Transcription (MCF-7:D5L cells) EC25E2 (ERα [4]) [µM],EC50 (ERα [4]; [7]) [µM],"Induction of cell proliferation (MCF-7 cells) Agonism at 1μΜ, class (MCF-7 cells)",RBAβ (ERβ [2]),"Induction of luciferase gene transcription, HEK:ERβ cells, Agonism at 1μΜ, class (ERβ [3]; compounds 1 μM; 18 h)","Induction of luciferase gene transcription, MCF-7:D5L cells, Agonism at 1μΜ, class (ERα [4]; compounds 1 μM, 18 h)",ERβ-dependent gene transcription agonist effect compared to the effect of 0.1 nM estradiol (ERβ [3]; [8]),other results
O=c1c(O)c(-c2ccc(O)c(O)c2)oc2cc(O)ccc12 [fisetin],–,–,–,–,–,–,–,–,–,–,–,–,–,–,–,–,–,EC50 (HT22 cells): ≥ 3 µM
"COc1cc(-c2coc3cc(O)cc(OC)c3c2=O)ccc1O [Compound 6, 3΄-methoxyisoprunetin]",~ 30%,182±8,0.63±0.01,1.6 ± 0.05,2.61 ± 0.29,Marginal (⩽10%),0.14 ± 0.04,4.50,81 ± 5,289±14,0.98 ± 0.07,1.57 ± 0.24,–,–,–,–,–,"activation at 1 µM (MCF-7 cells): 32 ± 3%; MCF-7 cell proliferation agonist effect compared to the effect of 0.1 nM estradiol (MCF-7 cells): lower than; Induction of luciferase gene transcription through ERα, MCF-7:D5L cells, Agonism at 1μΜ (% of 0.1nM E2) (ERα [4]; compounds 1 μM, estradiol 0.1 nM, 18 h): 22 ± 5 (Weak) ^* % of 0.1nM E2; ERα-dependent gene transcription agonist effect compared to the effect of 0.1 nM estradiol (ERα [4]; isoflavonoids 1 μM, statistically significant effects): lower than"
"COc1ccc(-c2coc3c(OC)c(O)ccc3c2=O)cc1 [Compound 2, 8-methoxyformononetin]",–,0.5±0.2,0.71±0.15,> 30,> 30,Marginal (⩽10%),0.06 ± 0.02,2.50,–,0.7±0.1,>30,> 30,Marginal (⩽10%),0.15 ± 0.04,Marginal (⩽10%),Marginal (⩽10%),–,–
"COc1cc(OC2OC(CO)C(O)C(O)C2O)cc2occ(-c3ccc(O)cc3)c(=O)c12 (stereo not drawn) [Compound 10, 7-O-glucopyranosyl-isoprunetin]",–,109±8,1.58±0.12,3.48 ± 0.51,8.23 ± 1.24,Marginal (⩽10%),–,1.50,–,69±5,6.50 ± 1.10,29.8 ± 5.2,Marginal (⩽10%),–,Marginal (⩽10%),Marginal (⩽10%),–,AlkP response higher than ERα-transcriptional response (relative AUC ratios) (Ishikawa cells): ~ 40%
"COc1cc(-c2coc3c(C4OC(CO)C(O)C(O)C4O)c(O)cc(O)c3c2=O)ccc1O (stereo not drawn) [Compound 13, 8-C-glucopyranosyl-3΄-O-methylorobol]",~ 30%,61±11,0.79±0.13,1.01 ± 0.27,2.34 ± 0.65,–,0.12 ± 0.05,1.00,–,77±17,2.20 ± 0.18,3.42 ± 0.91,Marginal (⩽10%),0.12 ± 0.04,Marginal (⩽10%),Marginal (⩽10%),–,"activation at 1 µM (Ishikawa cells; Homo sapiens, Ishikawa, 72 h, read-out: Induction of AlkP expression (Ishikawa cells) Agonism at 1μΜ (% of 0.1nM E2)): 15 ± 4%"
"COc1cc(O)cc2occ(-c3ccc(O)c(O)c3)c(=O)c12 [Compound 7, 5-O-methylorobol]",~ 30%,76±15,0.74±0.13,7.08 ± 0.45,11.8 ± 2.5,Marginal (⩽10%),0.13 ± 0.04,1.15,13 ± 4,103±9,5.35 ± 0.61,9.5 ± 1.57,Marginal (⩽10%),0.15 ± 0.04,–,Marginal (⩽10%),lower than,–
"COc1cc(O)cc2occ(-c3ccc(O)cc3)c(=O)c12 [Compound 4, isoprunetin]",–,94±16,0.94±0.03,3.9 ± 0.19,7.94 ± 2.28,Marginal (⩽10%),–,5.00,27 ± 5,100±14,3.72 ± 0.63,7.32 ± 2.18,–,0.15 ± 0.05,–,Marginal (⩽10%),lower than,activation at 1 µM (MCF-7 cells): 19 ± 6%; MCF-7 cell proliferation agonist effect compared to the effect of 0.1 nM estradiol (MCF-7 cells): lower than
"O=c1c(-c2ccc(OC3O[C@H](CO)[C@@H](O)[C@H](O)[C@H]3O)cc2)coc2c(C3O[C@H](CO)[C@@H](O)[C@H](O)[C@H]3O)c(O)cc(O)c12 (stereo partly drawn) [Compound 14, 8-C,4΄-O-diglucopyranosyl-genistein]",–,46±10,1.53±0.02,–,–,Marginal (⩽10%),–,2.50,–,30±13,3.57 ± 0.58,–,Marginal (⩽10%),0.05 ± 0.02,–,Marginal (⩽10%),lower than,"AlkP response higher than ERα-transcriptional response (relative AUC ratios) (Ishikawa cells): ~ 40%; EC50 (Ishikawa cells; Homo sapiens, Ishikawa): 6.42 ± 1.52 µM; activation at 1 µM (ERβ [3]; 18 h, read-out: Induction of luciferase gene transcription through ERβ, HEK:ERβ cells, Agonism at 1μΜ (% of 0.1nM E2)): 18 ± 1%; EC50 (ERα [4]): 7.72 ± 3.08 µM"
Oc1ccc(/C=C/c2cc(O)cc(O)c2)cc1 [resveratrol],–,–,–,–,–,–,–,–,–,–,–,–,–,–,–,–,–,EC50 (HT22 cells): ≥ 3 µM
